Reference: patent US20260327243A1, “SPIRO-HETEROCYCLIC INHIBITORS OF KRAS G12C MUTANT PROTEINS AND USES THEREOF” (AMGEN INC., priority 2023, published 2026)

Molecular target: KRAS^G12C (Homo sapiens, UniProt P01116, C118A/G12C)
Assay: Coupled Nucleotide Exchange Assay
Type: biochemical
Details: GDP-bound KRAS (aa 1-169) G12C/C118A; 2 h compound pre-incubation; SOS-mediated exchange, 30 min; cRAF binding (AlphaLISA)
Protocol: The KRAS^G12C coupled nucleotide exchange assay allows for the screening and profiling of KRAS^G12C antagonists/inhibitors by monitoring the binding of an effector protein (e.g., a Ras binding domain of Raf1, RBD-cRaf) to KRAS^G12C. Purified GDP-bound KRAS protein (aa 1-169), containing both G12C and C118A amino acid substitutions and an N-terminal His-tag, was pre-incubated in assay buffer (25 mM HEPES pH 7.4, 10 mM MgCl2, 0.01% Triton X-100, either with or without 0.1% BSA) with serially diluted compound for 2 h. For all subsequent steps, BSA was omitted and DTT was added to the reaction buffer at a final concentration of 1 mM. Following compound pre-incubation, purified SOS protein (aa 564-1049) and GTP (Roche 10106399001) were added to the assay wells and incubated for an additional 30 min. To determine the extent of inhibition of SOS-mediated nucleotide exchange, purified GST-tagged cRAF (aa 1-149), nickel chelate AlphaLISA acceptor beads (PerkinElmer AL108R), and AlphaScreen glutathione donor beads (PerkinElmer 6765302) were added to the assay wells and incubated for 5-30 min. The assay plates were then read on a plate reader measuring luminescence signal. Signal intensity of compound-containing wells were normalized to DMSO control, and data were analyzed using a 4-parameter logistic model to calculate IC50 values.

Sequence of KRAS^G12C (P01116 1-169 isoform P01116-2 G12C/C118A): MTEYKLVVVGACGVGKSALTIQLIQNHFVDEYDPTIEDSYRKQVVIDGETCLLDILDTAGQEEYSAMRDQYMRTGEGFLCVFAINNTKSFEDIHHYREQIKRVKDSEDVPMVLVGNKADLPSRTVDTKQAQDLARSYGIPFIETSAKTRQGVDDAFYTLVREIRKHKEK

SMILES | IC50 [µM]
C=CC(=O)N1CCN([C@@H]2CN(c3cc(N4C5CCC4CC4(CCCO4)C5)nc(C(F)(F)F)n3)[C@@H]2C)CC1 (stereo partly drawn) [Compound 3-026, 1-(4-((2R,3R)-1-(6-(dihydro-3′H-8-azaspiro[bicyclo[3.2.1]octane-3,2′-furan]-8-yl)-2-(trifluoromethyl)pyrimidin-4-yl)-2-methylazetidin-3-yl)piperazin-1-yl)prop-2-en-1-one] | 1.95
C=CC(=O)N1CCN(C2CN(c3cc(N4C5CCC4CC4(CCCO4)C5)nc(C(F)(F)F)n3)C2)CC1 (centres unmarked) [Compound 3-025, 1-(4-(1-(6-(dihydro-3′H-8-azaspiro[bicyclo[3.2.1]octane-3,2′-furan]-8-yl)-2-(trifluoromethyl)pyrimidin-4-yl)azetidin-3-yl)piperazin-1-yl)prop-2-en-1-one] | 3.72
C=CC(=O)N1CCN(C2CN(c3cc(N4CCC5(CC4)c4ccccc4C(=O)N5C)nc(C(F)(F)F)n3)C2)CC1 [Compound 3-013] | 5.64
C=CC(=O)N1CCN(C2CN(c3cc(N4CCC5(CC4)OCCC5=O)nc(C(F)(F)F)c3C#N)C2)CC1 [Compound 3-031, 4-(3-(4-acryloylpiperazin-1-yl)azetidin-1-yl)-6-(4-oxo-1-oxa-8-azaspiro[4.5]decan-8-yl)-2-(trifluoromethyl)nicotinonitrile] | 9.25
C=CC(=O)N1CCN(C2CN(c3cc(N4CCC5(CC4)OCC4CC45)nc(C(F)(F)F)c3C#N)C2)CC1 (centres unmarked) [Compound 3-042, 4-(3-(4-acryloylpiperazin-1-yl)azetidin-1-yl)-6-(3-oxaspiro[bicyclo[3.1.0]hexane-2,4′-piperidin]-1′-yl)-2-(trifluoromethyl)nicotinonitrile] | 5.12
C=CC(=O)N1CCN(C2CN(c3cc(N4CCC5(CC4)O[C@@H](C)C=C5Cl)nc(C(F)(F)F)c3C#N)C2)CC1 (single isomer, unassigned) [Compound 3-067-2] | 0.867
C=CC(=O)N1CCN([C@@H]2CN(c3cc(N4CCC5(CC4)OCc4nccc(C)c45)nc(C(F)F)n3)[C@@H]2C)CC1 [Compound 3-080] | 0.353
C=CC(=O)N1CCN(C2CN(c3cc(N4CCC5(CC4)CC(F)(F)CO5)nc(C(F)(F)F)c3C#N)C2)CC1 [Compound 3-044, 4-(3-(4-acryloylpiperazin-1-yl)azetidin-1-yl)-6-(3,3-difluoro-1-oxa-8-azaspiro[4.5]decan-8-yl)-2-(trifluoromethyl)nicotinonitrile] | 3.32
C=CC(=O)N1CCN(C2CN(c3cc(N4CCC5(CC4)OCCc4ncsc45)nc(C(F)F)c3C)C2)CC1 [Compound 3-069, 1-(4-(1-(2-(Difluoromethyl)-6-(6′,7′-dihydrospiro[piperidine-4,4′-pyrano[4,3-d]thiazol]-1-yl)-3-methylpyridin-4-yl)azetidin-3-yl)piperazin-1-yl) prop-2-en-1-one] | 0.83
C=CC(=O)N1CCN(C2CN(c3cc(N4CCC5(C=CCO5)CC4)nc(C(F)F)c3C)C2)CC1 [Compound 3-070, 1-(4-(1-(2-(difluoromethyl)-3-methyl-6-(1-oxa-8-azaspiro[4.5]dec-3-en-8-yl)pyridin-4-yl)azetidin-3-yl)piperazin-1-yl)prop-2-en-1-one] | 1.4
C=CC(=O)N1CCN(C2CN(c3cc(N4CCC5(CC4)OCc4cc(Cl)ccc45)nc(C(F)(F)F)c3C#N)C2)CC1 [Compound 3-041, 4-(3-(4-acryloylpiperazin-1-yl)azetidin-1-yl)-6-(5-chloro-3H-spiro[isobenzofuran-1,4′-piperidin]-1′-yl)-2-(trifluoromethyl)nicotinonitrile] | > 6.25
C=CC(=O)N1CCN(C2CN(c3cc(N4CCC5(CC4)CC(C#N)CO5)nc(C(F)(F)F)c3C#N)C2)CC1 (centres unmarked) [Compound 3-030, 8-(4-(3-(4-acryloylpiperazin-1-yl)azetidin-1-yl)-5-cyano-6-(trifluoromethyl)pyridin-2-yl)-1-oxa-8-azaspiro[4.5]decane-3-carbonitrile] | 9.59
C=CC(=O)N1CCN(C2CN(c3cc(N4CCC5(CC4)OCc4cnn(C)c45)nc(C(F)(F)F)n3)C2)CC1 [Compound 3-047, 1-(4-(1-(6-(1-methyl-1,4-dihydrospiro[furo[3,4-c]pyrazole-6,4′-piperidin]-1′-yl)-2-(trifluoromethyl)pyrimidin-4-yl)azetidin-3-yl)piperazin-1-yl)prop-2-en-1-one] | 2.69
C=CC(=O)N1CCN(C2CN(c3cc(N4CCC5(CCCO5)[C@H](CO)C4)nc(C(F)(F)F)c3C#N)C2)CC1 (single isomer, unassigned) [Compound 3-062-1] | 4.66
C=CC(=O)N1CCN(C2CN(c3cc(N4CCC5(CC4)CN(CC)C(=O)O5)nc(C(F)(F)F)c3C#N)C2)CC1 [Compound 3-033, 4-(3-(4-acryloylpiperazin-1-yl)azetidin-1-yl)-6-(3-ethyl-2-oxo-1-oxa-3,8-diazaspiro[4.5]decan-8-yl)-2-(trifluoromethyl)nicotinonitrile] | 6.19
C=CC(=O)N1CCN(C2CN(c3cc(N4CCC5(CC4)CC5(F)F)nc(C(F)(F)F)c3C#N)C2)CC1 [Compound 3-036, 4-(3-(4-acryloylpiperazin-1-yl)azetidin-1-yl)-6-(1,1-difluoro-6-azaspiro[2.5]octan-6-yl)-2-(trifluoromethyl)nicotinonitrile] | 6.7
C=CC(=O)N1CCN(C2CN(c3cc(N4CCC5(CC4)OC(=O)NC5(C)C)nc(C(F)(F)F)c3C#N)C2)CC1 [Compound 3-032, 4-(3-(4-acryloylpiperazin-1-yl)azetidin-1-yl)-6-(4,4-dimethyl-2-oxo-1-oxa-3,8-diazaspiro[4.5]decan-8-yl)-2-(trifluoromethyl)nicotinonitrile] | 2.75
C=CC(=O)N1CCN([C@@H]2CN(c3cc(N4CCC5(C=CCO5)CC4)nc(C(F)(F)F)n3)[C@@H]2C)CC1 [Compound 3-011, 1-(4-((2R,3R)-1-(6-(1-oxa-8-aza-spiro[4.5]dec-3-en-8-yl)-2-(tri-fluoromethyl)pyrimidin-4-yl)-2-methylazetidin-3-yl)piperazin-1-yl)prop-2-en-1-one] | 0.964
C=CC(=O)N1CCN(C2CN(c3cc(N4CCC5(CCCO5)[C@@H](CO)C4)nc(C(F)(F)F)c3C#N)C2)CC1 (stereo partly drawn) [Compound 3-062-2, 4-(3-(4-acryloylpiperazin-1-yl)azetidin-1-yl)-6-((6R)-6-(hydroxymethyl)-1-oxa-8-azaspiro[4.5]decan-8-yl)-2-(trifluoromethyl)nicotinonitrile] | 6.2
C=CC(=O)N1CCN(C2CN(c3cc(N4C5CCC4CC4(CCCO4)C5)nc(C(F)F)c3C)C2)CC1 (centres unmarked) [Compound 3-071, 1-(4-(1-(2-(difluoromethyl)-6-(dihydro-3′H-8-azaspiro[bicyclo[3.2.1]octane-3,2′-furan]-8-yl)-3-methylpyridin-4-yl)azetidin-3-yl)piperazin-1-yl)prop-2-en-1-one] | 2.99
C=CC(=O)N1CCN([C@@H]2CN(c3cc(N4CCC5(CC4)COc4nccc(C)c45)nc(C(F)F)n3)[C@@H]2C)CC1 [Compound 3-086, 1-(4-((2R,3R)-1-(2-(difluoromethyl)-6-(4-methyl-2H-spiro[furo[2.3-b]pyridine-3,4′-piperidin]-1′-yl)pyrimidin-4-yl)-2-methylazetidin-3-yl)piperazin-1-yl)prop-2-en-1-one] | 2.91
C=CC(=O)N1CCN(C2CN(c3cc(N4CCC5(CCc6ccccc65)CC4)nc(C(F)(F)F)n3)C2)CC1 [Compound 3-063, 1-(4-(1-(6-(2,3-Dihydrospiro[indene-1,4′-piperidin]-1′-yl)-2-(trifluoromethyl)pyrimidin-4-yl)azetidin-3-yl)piperazin-1-yl) prop-2-en-1-one] | 8.24
C=CC(=O)N1CCN(C2CN(c3cc(N4CCC5(CC4)COCCO5)nc(C(F)(F)F)c3C#N)C2)CC1 [Compound 3-024, 4-(3-(4-acryloylpiperazin-1-yl)azetidin-1-yl)-6-(1,4-dioxa-9-azaspiro[5.5]undecan-9-yl)-2-(trifluoromethyl)nicotinonitrile] | 6.1
C=CC(=O)N1CCN([C@@H]2CN(c3cc(N4CCC5(C=CCC5)CC4)nc(C(F)(F)F)n3)[C@@H]2C)CC1 [Compound 3-073, 1-(4-((2R,3R)-1-(6-(8-Azaspiro[4.5]dec-1-en-8-yl)-2-(trifluoromethyl)pyrimidin-4-yl)-2-methylazetidin-3-yl)piperazin-1-yl) prop-2-en-1-one] | 4.3
C=CC(=O)N1CCN(C2CN(c3cc(N4CCC5(C=C[C@H](C)O5)CC4)nc(C(F)(F)F)c3C#N)C2)CC1 [Compound 3-068-2, (S)-4-(3-(4-acryloylpiperazin-1-yl)azetidin-1-yl)-6-(2-methyl-1-oxa-8-azaspiro[4.5]dec-3-en-8-yl)-2-(trifluoromethyl)nicotinonitrile] | 1.54
C=CC(=O)N1CCN(C2CN(c3cc(N4CCC5(CC4)CCN(C4COC4)C5)nc(C(F)(F)F)c3C#N)C2)CC1 [Compound 3-048, 4-(3-(4-acryloylpiperazin-1-yl)azetidin-1-yl)-6-(2-(oxetan-3-yl)-2,8-diazaspiro[4.5]decan-8-yl)-2-(trifluoromethyl)nicotinonitrile] | 2.29
